The EC50 is the concentration that produces a half-maximal response.

The first assay deals with primary hepatocytes isolated from rats. The experiment in a line: Hepatocyte protective effect against substances deriving hepatocyte toxicity (WST-1 viability). To be noted: Rattus norvegicus, Hepatocyte, doxorubicin, 24-48 h, read-out: EC50, cell protective effects against doxorubicin in hepatocytes. It counts as cell-based. As for the experimental part: Various endogenous/exogenous attacks on the cells trigger the mechanisms of cell death which is broadly classified into two types, i.e. apoptosis or necrosis. Using these cell death mechanisms, in the present experimental example, primary hepatocytes isolated from rats were treated with drugs which were clinically shown to result in serious side-effects of hepatocyte toxicity or various chemicals which derive cell death, and the compounds synthesized in the Examples were estimated for their hepatocyte protective effects, after 24-48 h. The substances used to derive hepatocyte death include CCl4, ActD, H2O2, doxorubicin, anti-Fas Ab/Actinomycin D, acetaminophen, EtOH, CdCl2, palmitate, stearate, cyclophosphamide, terfenadine, diclofenac, simvastatin, and adefovir. Primary hepatocytes were isolated using the method of Seglen PO (Experimental Cell Research 74 (1972) pp 450-454). Briefly, hepatocytes were isolated according to the two-step collagenase perfusion method, and dead cells were removed by low speed (500 rpm) centrifugation for 10 min using percoll gradient (Kreamer B L etc, In Vitro Cellular & Developmental Biology 22 (1986) pp 201-211). During this step, the viability of cells was maintained 90% or above. The cells were suspended in HepatoZYME media (Gibco BRL), and the number of cells was counted. 1.5×10^4 cells in 100 μl were placed into the collagen-coated 96-well plate (BD biocoat), and adhered on the bottom for 3-4 h.
In order to assess the hepatocyte protective effect, above adhered cells were pretreated with the Example compounds for 30 min. At this time, the concentration of the Example compounds were serially diluted by 2-fold or 3-fold over 5 steps starting from 30 uM, 10 uM or 1 uM depending on the experiments, and the final concentration of DMSO was adjusted to 0.2%. 30 min after the treatment by compounds, cells were treated by the substances deriving hepatocyte death or hepatotoxic drugs at the concentrations indicated in Table 1. After 24-48 h, the viability of cells was determined to estimate the hepatocyte protective effects. The viability of cells was determined using WST-1 (MK-400, […]) method by the absorbance at 440 nm. Hepatocyte protective effects of the Example compounds were represented by “EC50,” which was calculated from measured values. “EC50” herein means the concentration of the compound at which 50% of maximum protective effect is observed in the experiment.
On to `c1cc(NC2CCCC2)c2[nH]c(-c3cnccn3)cc2c1` [Example 5, Cyclopentyl-[2-(pyrazin-2-yl)-1H-indol-7-yl]-amine], for which the EC50 came out at 500 nM.

Take `Nc1ccc(-c2cc3cc(Cl)cc(NC4CCCC4)c3[nH]2)cc1` [Example 82, Cyclopentyl-[2-(4-aminophenyl)-5-chloro-1H-indol-7-yl]-amine]: the EC50 is 70 nM.

For the compound `O=C1CN(Cc2c(-c3ccccc3)[nH]c3c(NC4CCCC4)cc(Cl)cc23)CCN1` [Example 70, Cyclopentyl-(5-chloro-3-(2-oxo-piperazin-4-yl)methyl-2-phenyl-1H-indol-7-yl)-amine], the EC50 was determined as 256 nM.

Consider `Clc1cc(NC2CCOCC2)c2[nH]cc(-c3ccccc3)c2c1` [Example 79, (Tetrahydropyran-4-yl)-(5-chloro-3-phenyl-1H-indol-7-yl)-amine], for which the EC50 was 140 nM.

Regarding `O=C1CN(Cc2c(-c3ccccc3)[nH]c3c(NCC4CCOCC4)cc(Cl)cc23)CCN1` [Example 71, (Tetrahydropyran-4-ylmethyl)-(5-chloro-3-(2-oxo-piperazin-4-yl)methyl-2-phenyl-1H-indol-7-yl)-amine], the EC50 came out at 254 nM.

As to `Cc1ccc(Nc2cc(Cl)cc3cc(-c4ccccc4)[nH]c23)nc1` [Example 114, (5-Chloro-2-phenyl-1H-indol-7-yl)-5-methyl-pyridin-2-yl-amine], the EC50 came out at 370 nM.

In the case of `O=C(O)C[C@@H]1CSC(c2cc(NCC3CCOCC3)c3[nH]c(-c4ccccc4)cc3c2)=N1` [Example 122, 2-[(R)-2-(2-phenyl-7-(tetrahydropyran-4-yl)methylamino-1H-indol-5-yl)-4,5-dihydro-thiazol-4-yl]-acetic acid], the EC50 was 200 nM.

`Clc1cc(NC2CCOCC2)c2[nH]c(-c3cccc(CN4CCOCC4)c3)cc2c1` [Example 148, [5-Chloro-2-(3-morpholin-4-ylmethylphenyl)-1H-indol-7-yl]-(tetrahydropyran-4-yl)-amine]: the EC50 worked out at 160 nM.

As to `Clc1cc(NC2CCOCC2)c2[nH]c(-c3ccccc3)c(CN3CCOCC3)c2c1` [Example 68, (Tetrahydropyran-4-yl)-(5-chloro-3-(morpholin-4-yl)methyl-2-phenyl-1H-indol-7-yl)-amine], the EC50 was 320 nM.

As to `O=S1(=O)CCN(Cc2cc(NC3CCOCC3)c3[nH]cc(-c4ccccc4)c3c2)CC1` [Example 161, (Tetrahydropyran-4-yl)-[5-(1,1-dioxo-thiomorpholin-4-yl)methyl-3-phenyl-1H-indol-7-yl)-amine], the EC50 was determined as 360 nM.

As to `OCC(CO)Nc1cc(Cl)cc2cc(-c3ccccc3)[nH]c12` [Example 54, 2-[(5-Chloro-2-phenyl-1H-indol-7-yl)amino]propan-1,3-diol], the EC50 was 220 nM.

Take `COC(=O)c1ccc(-c2cc3cc(C)cc(NC4CCCC4)c3[nH]2)cc1` [Example 143, 4-(7-Cyclopentylamino-5-methyl-1H-indol-2-yl)benzoic acid methyl ester]: the EC50 is 66 nM.

As to `Fc1cc(NC2CCN(C3CCOCC3)CC2)c2[nH]c(-c3ccccc3)cc2c1` [Example 61, [1-(Tetrahydropyran-4-yl)piperidin-4-yl]-(5-fluoro-2-phenyl-1H-indol-7-yl)amine], the EC50 was determined as 260 nM.

On to `c1ccc(Oc2cc(NC3CCOCC3)c3[nH]c(-c4ccccc4)cc3c2)cc1` [Example 62, (Tetrahydropyran-4-yl)-(5-phenoxy-2-phenyl-1H-indol-7-yl)-amine], for which the EC50 was determined as 110 nM.

With `O=C(C1CCCO1)N1CCC(Nc2cc(CN3CCS(=O)(=O)CC3)cc3cc(-c4ccccc4)[nH]c23)CC1` (stereo not shown) [Example 98, {4-[5-(1,1-Dioxo-thiomorpholin-4-yl)methyl-2-phenyl-1H-indol-7-yl]amino-piperidin-1-yl}-(tetrahydrofuran-2-yl)-methanone], the EC50 stood at 110 nM.

The assay is the same for the next values; noted with them: doxorubicin; rat primary hepatocytes; 24-48 h; read-out: EC50, cell protective effects against doxorubicin in hepatocytes.
For the compound `CN1CCC(CNc2cc(F)cc3cc(-c4ccccc4)[nH]c23)CC1` [Example 59, (1-Methyl-piperidinemethyl-4-yl)-[5-fluoro-2-phenyl-1H-indol-7-yl]amine], the EC50 amounted to 200 nM.
